Here are results for six molecules from patent publication US9951076B2, “Deuterated pentylenetetrazoles for improving cognitive function” (Balance Therapeutics, Inc., priority 2011, dated 2018).

A short description of data set [1]: Metabolic stability in human liver microsomes. As to conditions: for t1/2 increase over t1/2 of PTZ / in vitro t1/2 compared to the t1/2 of PTZ: human liver microsomes; for in vitro t1/2 compared to the t1/2 of PTZ: under the assay conditions tested; for half-life at 1 μM / microsomal CLint at 1 μM: pH 7.4, 1 mg/mL human liver microsomes, 1 μM test compound, NADPH regenerating system, 37° C., 0-45 min. In kind it is in vitro ADME. The procedure: Human liver microsomes (Lot# FJM) were obtained from Celsis (Baltimore, Md.). Components of the NADPH regenerating system solution A (Lot#29850) and B (Lot#28594) were obtained from BD Gentest (Woburn, Mass.). […] All solvents and buffers were obtained from commercial sources and used without further purification.
NADPH regenerating system (1.3 mM NADP^+, 3.3 mM glucose-6-phosphate, 0.4 U/mL glucose-6-phosphate dehydrogenase, and 3.3 mM magnesium chloride) were prepared by mixing 5 volume of solution A and 1 volume of solution B and pre-warmed at 37° C. in a shaking water bath. Reactions were initiated by adding NADPH regenerating system to the incubation mixtures. After 0, 5, 10, 15, 30 and 45 min of incubation, 0.1 mL reaction mixtures were removed from the incubation plate and mixed with 0.15 mL of ice-cold acetonitrile in an appropriate well of a 96-well crash plate. The 96-well crash plate was placed on ice for 15 min, and samples were centrifuged (2,500 g, 10 min, 4° C.) to precipitate protein. The supernatants were diluted 1:1 (v/v) with water containing 0.015 μM verapamil (internal standard) in 96-well shallow injection plate, which was sealed and submitted for LC/MS or LC/MS/MS analysis utilitzing a API 150 single quadrupole mas spectrometer.
The residual compound remaining (% R) was determined from LC/MS peak areas by comparison to a zero time point. Metabolic half-life (t1/2) and intrinsic clearance (CLint) values were calculated from the slope of ln(%) plotted vs. time.

For data set [2] the following is noted: cited from earlier work.
The conditions of data set [3]: orally administered, humans; cited from earlier work.

As for `[2H]C1([2H])c2nnnn2C([2H])([2H])C([2H])([2H])C([2H])([2H])C1([2H])[2H]` [Compound 1, d10-6,7,8,9-Tetrahydro-5H-tetrazolo[1,5-a]azepine], in data set [1], the “t1/2 increase over t1/2 of PTZ” value is reported as 45.1%; the “in vitro t1/2 compared to the t1/2 of PTZ” value was “increased”; the half-life (as a rule, the time needed for the level to fall by half in the phase considered) at 1 μM turned out to be 12.6 h; the microsomal CLint (in general, a measure of how fast metabolising enzymes remove a compound, apart from limits set by blood flow) at 1 μM is 0.9 µL/min/mg.

As for `[2H]C1([2H])CCCC([2H])([2H])n2nnnc21` [Compound 2, 6,6,10,10-d4-6,7,8,9-Tetrahydro-5H-tetrazolo[1,5-a]azepine], in data set [1], the “t1/2 increase over t1/2 of PTZ” value was determined as 6.3%, the “in vitro t1/2 compared to the t1/2 of PTZ” value is “increased”, the half-life at 1 μM came to 9.23 h and the microsomal CLint at 1 μM is 1.3 µL/min/mg.

For `[2H]C1([2H])Cc2nnnn2CC([2H])([2H])C1([2H])[2H]` [Compound 3], in data set [1], the “t1/2 increase over t1/2 of PTZ” value was −2.9%, the half-life at 1 μM was 8.43 h and the microsomal CLint at 1 μM worked out at 1.4 µL/min/mg.

Regarding `[2H]C1([2H])CC([2H])([2H])c2nnnn2C([2H])([2H])C1` [Compound 4, 6,6,8,8,10,10-d6-6,7,8,9-tetrahydro-5H-tetrazolo[1,5-a]-azepine], in data set [1], the “t1/2 increase over t1/2 of PTZ” value is 8.8%, the “in vitro t1/2 compared to the t1/2 of PTZ” value is on record as “increased”, the half-life at 1 μM came out at 9.45 h and the intrinsic metabolic clearance (microsomal CLint) at 1 μM worked out at 1.2 µL/min/mg.

As for `C1CCc2nnnn2CC1` [PTZ, pentylenetetrazole], the “time of peak concentration in blood” value in data set [2] (after intravenous (IV) or intraperitoneal (IP) delivery) is at most 10 min. Besides, the plasma half-life entry in data set [2] (in vivo) is “about 60 minutes”. In data set [1], this molecule had a half-life at 1 μM of 8.68 h and an intrinsic clearance (microsomal CLint) at 1 μM of 1.3 µL/min/mg. The kindling dose entry in data set [3] is recorded as “approximately 20 mg/kg”.

Turning to `C[C@]12CC[C@H]3[C@@H](CCC4=CC(=O)CC[C@@]43C)[C@@H]1CC[C@@H]2O` [testosterone, reference compound], the microsomal CLint at 1 μM in data set [1] was found to be 76 µL/min/mg.
